Laboratory results reported in US4791215A, “Derivatives of glutamic acid and aspartic acid” (priority 1984, dated 1988).
Where “and” joins values, the source holds several entries; their conditions need not be identical. Identical values can stand only once.

Tests used:
biliary flow = experiment: Biliary flow (choleretic activity); assay type: in vivo, rat
Procedure, shortened: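 In urethane-anaesthetised rats with bile duct cannulated, bile collected 1 h before and 2 h after intravenous compound dosing. Samples weighed at 30 minute intervals; 0.5 ml physiological solution given every 30 minutes to prevent dehydration.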

[1] = tested on: enkephalinamide (DALA) analgesia; experiment: Potentiation of DALA (enkephalinamide) analgesia, i.c.v., Tail Flick Test (Experiment 4); assay type: in vivo, rats; parameters: scale not given here; settings: DALA 10 + compound 0.01 mg/kg (ICV), 0.01 mg/kg
Excerpt: Experiment No. 4: Potentiation of the analgesic activities of enkephalins induced by some of the compounds of the invention. […]

[2] = tested on: tolerance induced by morphine; experiment: Antagonism to development of tolerance to repeated morphine HCl, Tail Flick Test (Experiment 5); settings: compound 10 mg/kg + morphine 5 mg/kg i.p.
Protocol: Experiment No. 5: Antagonism of several products of the invention to the development of tolerance induced in rats by the repeated administration of morphine HCl.
Several of the compounds of the invention were examined to determine their possible capacity to antagonise the development of tolerance induced by morphine. Groups of 6 male rats having a weight of about 200-250 grams were used.
At intervals of 24 hours from the first treatment (time 0) each animal (except the control group treated physiologically) received 5 mg/kg of morphine hydrochloride i.p. together with 10 mg/kg i.p. of the compounds indicated (with the exception of the group treated solely with morphine).
The determination of the pain threshold was effected 15', 30', 45' and 60' from the treatment by the Tail Flick Test.

[3] = tested on: CCK-8 induced contraction of guinea pig gall bladder; experiment: Anti-CCK-8 activity on gall bladders in situ; assay type: in vivo
[4] = tested on: activity of analgesic drugs; experiment: Hot-plate test, potentiation of analgesic drugs (Experiment 2); assay type: in vivo, rats
Procedure, shortened: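 Male rats of about 150 g, not fasted, five per group, were placed on a plate held at 55°±1° C. Licking or jumping latency was recorded before and at 10–90 min after dosing, with a 30 s cut-off. A positive response meant at least a doubling of reaction time, reported as positives/treated.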

[5] = tested on: endogenous opiates analgesia; experiment: Analgesic activity of endogenous opiates released by transcutaneous shock, Tail Flick Test (Experiment 3); assay type: in vivo, rats
Procedure, shortened: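 Non-fasted male rats (~200 g) stressed with 60 Hz-2.5 mA front-leg current, 1 s pulses every 5 s for 20 min, to release endogenous opiates. Analgesia measured by tail flick test.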

SMILES: CCCN(CCC)C(=O)C(CCC(=O)O)NC(=O)c1ccc(C)c(C)c1 (stereo not drawn) [Compound C-30]
- % increase in biliary flow with respect to controls (biliary flow; 12.5 mg/kg i.v.): +33.7%
- % increase in biliary flow with respect to controls (biliary flow; 25 mg/kg i.v.): +60.2%
- % increase in biliary flow with respect to controls (biliary flow; 50 mg/kg i.v.): +121.2%
- % increase in biliary flow with respect to controls (biliary flow; 100 mg/kg i.v.): +197.8%
- ED50 (biliary flow; Rattus norvegicus, iv, average over 2 hours, read-out: ED50 (dose causing 50% increase in biliary flow)): 18.5 mg/kg
- analgesic activity, Tail Flick ([1]; 10'): 58 and 59.1
- analgesic activity, Tail Flick ([1]; 20'): 60.8 and 67.8
- analgesic activity, Tail Flick ([1]; 30'): 77.0 and 86.0
- analgesic activity, Tail Flick ([1]; 45'): 66.4 and 83.3
- analgesic activity, Tail Flick ([1]; 60'): 48.8 and 83.3
- analgesic activity, Tail Flick ([1]; 90'): 45.0 and 55.1
- MEAN analgesic activity, Tail Flick ([1]; mean): 59.33 and 73.26
- percentage variation in latency time (Effect %) ([2]; 24 h): 66.53% and 67.27%
- percentage variation in latency time (Effect %) ([2]; 48 h): 50.61% and 67.31%
- percentage variation in latency time (Effect %) ([2]; 72 h): 47.53% and 56.04%
- percentage variation in latency time (Effect %) ([2]; 96 h): 29.65% and 49.48%
- percentage variation in latency time (Effect %) ([2]; 120 h): 34.24% and 34.34%
- percentage variation in latency time (Effect %) ([2]; 144 h): 26.97% and 27.50%
- percentage variation in latency time (Effect %) ([2]; time 0): 74.51% and 44.52%
- percentage inhibition of contracting effect of CCK-8 ([3]; 30 mg/kg i.v., single experiments): 82.1% and 92.5% and 79.5%
- ED50 ([3]; Cavia porcellus, iv, CCK-8 10 ng/kg i.v., read-out: ED50 (inhibition of 50% of contracting effect of CCK-8)): 13.8 mg/kg
- TOTAL positives ([4]; oxyphenylbutazone 50 + compound 3 mg/kg i.p.): 11 x/30
- positive responses over number treated ([4]; oxyphenylbutazone 50 + compound 3 mg/kg i.p., 10'): 1/5
- positive responses over number treated ([4]; oxyphenylbutazone 50 + compound 3 mg/kg i.p., 20'): 1/5
- positive responses over number treated ([4]; oxyphenylbutazone 50 + compound 3 mg/kg i.p., 30'): 3/5
- positive responses over number treated ([4]; oxyphenylbutazone 50 + compound 3 mg/kg i.p., 45'): 2/5
- positive responses over number treated ([4]; oxyphenylbutazone 50 + compound 3 mg/kg i.p., 60'): 2/5
- positive responses over number treated ([4]; oxyphenylbutazone 50 + compound 3 mg/kg i.p., 90'): 2/5
- TOTAL positives ([4]; oxyphenylbutazone 50 + compound 10 mg/kg i.p.): 12 x/30
- positive responses over number treated ([4]; oxyphenylbutazone 50 + compound 10 mg/kg i.p., 10'): 1/5
- positive responses over number treated ([4]; oxyphenylbutazone 50 + compound 10 mg/kg i.p., 20'): 2/5
- positive responses over number treated ([4]; oxyphenylbutazone 50 + compound 10 mg/kg i.p., 30'): 2/5
- positive responses over number treated ([4]; oxyphenylbutazone 50 + compound 10 mg/kg i.p., 45'): 3/5
- positive responses over number treated ([4]; oxyphenylbutazone 50 + compound 10 mg/kg i.p., 60'): 3/5
- positive responses over number treated ([4]; oxyphenylbutazone 50 + compound 10 mg/kg i.p., 90'): 2/5
- TOTAL positives ([4]; oxyphenylbutazone 50 + compound 30 mg/kg i.p.): 20 x/30
- positive responses over number treated ([4]; oxyphenylbutazone 50 + compound 30 mg/kg i.p., 10'): 2/5
- positive responses over number treated ([4]; oxyphenylbutazone 50 + compound 30 mg/kg i.p., 20'): 3/5
- positive responses over number treated ([4]; oxyphenylbutazone 50 + compound 30 mg/kg i.p., 30'): 4/5
- positive responses over number treated ([4]; oxyphenylbutazone 50 + compound 30 mg/kg i.p., 45'): 4/5
- positive responses over number treated ([4]; oxyphenylbutazone 50 + compound 30 mg/kg i.p., 60'): 4/5
- positive responses over number treated ([4]; oxyphenylbutazone 50 + compound 30 mg/kg i.p., 90'): 3/5
- TOTAL positives ([4]; propoxyphene 10 + compound 0.3 mg/kg i.p.): 11 X/30
- positive responses over number treated ([4]; propoxyphene 10 + compound 0.3 mg/kg i.p., 10'): 2/5
- positive responses over number treated ([4]; propoxyphene 10 + compound 0.3 mg/kg i.p., 20'): 1/5
- positive responses over number treated ([4]; propoxyphene 10 + compound 0.3 mg/kg i.p., 30'): 3/5
- positive responses over number treated ([4]; propoxyphene 10 + compound 0.3 mg/kg i.p., 45'): 3/5
- positive responses over number treated ([4]; propoxyphene 10 + compound 0.3 mg/kg i.p., 60'): 2/5
- positive responses over number treated ([4]; propoxyphene 10 + compound 0.3 mg/kg i.p., 90'): 0/5
- TOTAL positives ([4]; propoxyphene 10 + compound 1 mg/kg i.p.): 19 X/30
- positive responses over number treated ([4]; propoxyphene 10 + compound 1 mg/kg i.p., 10'): 3/5
- positive responses over number treated ([4]; propoxyphene 10 + compound 1 mg/kg i.p., 20'): 4/5
- positive responses over number treated ([4]; propoxyphene 10 + compound 1 mg/kg i.p., 30'): 4/5
- positive responses over number treated ([4]; propoxyphene 10 + compound 1 mg/kg i.p., 45'): 4/5
- positive responses over number treated ([4]; propoxyphene 10 + compound 1 mg/kg i.p., 60'): 2/5
- positive responses over number treated ([4]; propoxyphene 10 + compound 1 mg/kg i.p., 90'): 2/5
- TOTAL positives ([4]; propoxyphene 10 + compound 3 mg/kg i.p.): 25 X/30
- positive responses over number treated ([4]; propoxyphene 10 + compound 3 mg/kg i.p., 10'): 3/5
- positive responses over number treated ([4]; propoxyphene 10 + compound 3 mg/kg i.p., 20'): 5/5
- positive responses over number treated ([4]; propoxyphene 10 + compound 3 mg/kg i.p., 30'): 5/5
- positive responses over number treated ([4]; propoxyphene 10 + compound 3 mg/kg i.p., 45'): 5/5
- positive responses over number treated ([4]; propoxyphene 10 + compound 3 mg/kg i.p., 60'): 4/5
- positive responses over number treated ([4]; propoxyphene 10 + compound 3 mg/kg i.p., 90'): 3/5
- average latency, Tail Flick ([5]; compound 1 mg/kg iv + stress, 5'): 7.26 ± 0.52 s
- average latency, Tail Flick ([5]; compound 1 mg/kg iv + stress, 10'): 6.10 ± 0.49 s
- average latency, Tail Flick ([5]; compound 1 mg/kg iv + stress, 15'): 4.68 ± 0.5 s
- average latency, Tail Flick ([5]; compound 3 mg/kg iv + stress, 5'): 9.46 ± 0.64 s
- average latency, Tail Flick ([5]; compound 3 mg/kg iv + stress, 10'): 7.96 ± 0.61 s
- average latency, Tail Flick ([5]; compound 3 mg/kg iv + stress, 15'): 6.82 ± 0.78 s
